1 compound from patent US20220041582A1, “ISOXAZOLINE COMPOUNDS FOR CONTROLLING INVERTEBRATE PESTS” (FMC Corporation, priority 2018, published 2022) can be followed below.

Common to all, as to format: in vivo
The test system of experiment [1] is green peach aphid (Myzus persicae (Sulzer)). Put plainly: Test E: control of green peach aphid through contact and/or systemic means. The settings on record: 144 h. The method, then:
(§1) Formulation and Spray Methodology for Tests A-H
(§2) Test compounds were formulated using a solution containing 10% acetone, 90% water and 300 ppm Activator 90® non-ionic surfactant (Loveland Products, Loveland, Colo., USA). The formulated compounds were applied in 1 mL of liquid through an atomizer nozzle positioned 1.27 cm (0.5 inches) above the top of each test unit. Test compounds were sprayed at the rates indicated, and each test was replicated three times.
For evaluating control of green peach aphid (Myzus persicae (Sulzer)) through contact and/or systemic means, the test unit consisted of a small open container with a 12-15-day-old radish plant inside. This was pre-infested by placing on a leaf of the test plant 30-40 aphids on a piece of leaf excised from a culture plant (cut-leaf method). The aphids moved onto the test plant as the leaf piece desiccated. After pre-infestation, the soil of the test unit was covered with a layer of sand.
Test compounds were formulated and sprayed at 250, 50 and 10 ppm. After spraying of the formulated test compound, each test unit was allowed to dry for 1 hour and then a black, screened cap was placed on top. The test units were held for 6 days in a growth chamber at 19-21° C. and 50-70% relative humidity. Each test unit was then visually assessed for insect mortality.

Experiment [2] relates to cotton melon aphid (Aphis gossypii (Glover)). As to the kind of experiment: Test F: control of cotton melon aphid through contact and/or systemic means. The settings on record: 144 h. The method, then:
as §1, §2
[…] This was pre-infested with 30-40 insects on a piece of leaf according to the cut-leaf method, and the soil of the test unit was covered with a layer of sand.
Test compounds were formulated and sprayed at 250, 50 and 10 ppm. After spraying, the test units were maintained in a growth chamber for 6 days at 19° C. and 70% relative humidity. Each test unit was then visually assessed for insect mortality.

The test system of experiment [3] is Western Flower Thrips (Frankliniellla occidentalis (Pergande)). As to the kind of experiment: Test H: control of Western Flower Thrips through contact and/or systemic means. Conditions: 50 ppm spray; 6 days; 30% or less plant damage and/or 100% mortality. The method, then: as §1, §2
For evaluating control of the Western Flower Thrips (Frankliniellla occidentalis (Pergande)) through contact and/or systemic means, the test unit consisted of a small open container with a 8-9-day-old Soleil bean plant inside.
Test compounds were formulated and sprayed at 250, 50, 10 and 2 ppm. After spraying, the test units were allowed to dry for 1 hour, and then ˜60 thrips (adults and nymphs) were added to each unit. A black, screened cap was placed on top, and the test units were held for 6 days at 25° C. and 45-55% relative humidity. Each test unit was then visually assessed for plant damage and insect mortality.

In experiment [4] the test system is sweetpotato whitefly (Bemisia tabaci (Gennadius)). Put plainly: Test G: control of sweetpotato whitefly through contact and/or systemic means. The settings on record: 312 h. The method, then: as §1, §2
For evaluating control of the sweetpotato whitefly (Bemisia tabaci (Gennadius)) through contact and/or systemic means, the test unit consisted of a small open container with a 12-14-day-old cotton plant inside. Prior to the spray application, both cotyledons were removed from the plant, leaving one true leaf for the assay. Adult whiteflies were allowed to lay eggs on the plant and then were removed from the test unit. Cotton plants infested with at least 15 eggs were submitted to the test for spraying.
Test compounds were formulated and sprayed at 250, 50 and 10 ppm. After spraying, the test units were allowed to dry for 1 hour. The cylinders were then removed, and the units were taken to a growth chamber and held for 13 days at 28° C. and 50-70% relative humidity. Each test unit was then visually assessed for insect mortality.

Molecules are shown by their SMILES.

A word on the mortality: it is the share of the test organisms that died. Read a low mortality as a weak lethal effect. Regarding `CCN1OC[C@@H](NC(=O)c2ccc(C3=NOC(c4cc(Cl)cc(Cl)c4)(C(F)(F)F)C3)c3ccncc23)C1=O` (stereo partly drawn) [Compound 1], the mortality at 250 ppm was at least 80% in experiment [1], at least 80% in experiment [2] and at least 50% in experiment [4]. Further, the mortality at 50 ppm was at least 80% in experiment [2] and at least 50% in experiment [4]. Further, the “control efficacy: plant damage (and/or 100% mortality)” value in experiment [3] is at most 30%.
